What all share (type): cell-based, human
Experiment [1] concerns minimal luciferase reporter (pGL3-TATA-Luc). Briefly: TATA-containing minimal luciferase reporter assay in U2OS cells. The note with it: 50 μM, 5 h. The procedure: DNA Transfection and Sequential β-Galactosidase/Luciferase Assay. For luciferase reporter assays, U2OS cells were cultured in 6-well dishes and transfected 24 h later with various reporter plasmids by the calcium precipitation method as previously described (Martin, K., et al. Nature 375, 691-694 (1995)). 24 h following precipitate removal, cells were exposed for 5 h to either vehicle (0.5% DMSO) or 50 μM of decoy peptide, prior to harvesting. Cells were scraped in 200 μl of lysis buffer and a single 10 μl aliquot of lysate was immediately used for sequential measurement of β-galactosidase and luciferase activity using the Dual Light System (Tropix). For protein overexpression experiments, U2OS cells were cultured in 6-well plates at a density of 1×10^5 cells/well and transfected 24 h later with Superfect reagent (QIAGEN).
FIG. 3: Analysis of E2F-responsive transcription in U2OS cells in response to decoy peptide treatment. (A) β-galactosidase/Luciferase assay of U2OS cells co-transfected with 0.1 μg of pCMV/β-galactosidase and 7.5 μg of the indicated luciferase reporter plasmids. Promoter activity of vehicle-treated samples was normalized to 100% and the activities of the peptide-treated samples were expressed relative to the vehicle-treated control. Values represent the average +/− standard deviation of at least two independent experiments; (B) Semi-quantitative RT-PCR analysis on total RNA for dhfr, cyclin-E, cyclin A2, PCNA, DNA Pola and cdc2 expression in U2OS cells exposed for 16 h to either vehicle (0.5% DMSO) or 50 μM of the indicated decoy peptides. H-actin was included as an internal control.
The PHD-bromodomain-interacting function of TRIP-Br proteins co-regulate E2F-dependent transcriptional activity in vivo. […] U2OS cells were chosen for this assay because they express functional E2F-1, DP-1, Rb and detectable levels of endogenous TRIP-Br1 (as assessed by Western blot analysis using a rabbit polyclonal anti-TRIP-Br1 antibody (Hsu, S. I. H., et al. EMBO J 20, 2273-2285 (2001)); data not shown). […]

Experiment [2] has as its system caspase-3 protease activity. The experiment can be described thus: Caspase assay with Ac-DEVD-AFC in U2OS cells. The note with it: 50 μM decoy peptides, 48 or 72 h. The procedure: Caspase assay. Both adherent and detached cells in 6-well dishes were harvested by centrifugation at 2000 rpm for 15 min at 4° C. The resulting cell pellets were incubated in 50 μl of chilled lysis buffer (Clontech) on ice for 10 min. Cell lysates were incubated in a reaction mix containing 10 mM HEPES, 2.0 mM EDTA, 10 mM KCl, 1.5 mM MgCl2, 1.0 mM PMSF, aprotinine, pepstatin A and leupeptine (20 μM each), 6.0 mM DTT and Ac-DEVD-AFC (4.0 μg/ml). Reactions were allowed to proceed at room temperature. Fluorescence readings were taken at 15 min intervals for 1 h using a spectrofluorometer (excitation wavelength: 400 nm; emission wavelength: 505 nm).
FIG. 6: Caspase assay. (A) Caspase 3 protease activity in U2OS cells exposed to either Eto (Etoposide) for 24 h or 50 μM decoy peptides for 48 or 72 h, were assayed using the Ac-DEVD-AFC fluorogenic substrate. […] Values represent the average +/− standard deviation of two independent experiments. Control: cells cultured in normal growth medium; Vehicle: cells cultured in the presence of 0.5% DMSO; (B) Western blot analysis of PARP cleavage. U2OS cells were exposed to either Eto (Etoposide) for 24 h or 50 μM decoy peptides for 72 h. Lane 1: Vehicle cells (cultured in the presence of 0.5% DMSO for 24 h); Lane 2: 25 μM Eto; Lane 3: 250 μM Eto; Lane 4: Vehicle (cells cultured in the presence of 0.5% DMSO for 72 h); Lane 5: *SCR; Lane 6: *Br1; Lane 7: *Br2.

A further experiment relates to cyclins and Cdks. Briefly: Cell cycle protein expression profile of U2OS cells released from nocodazole arrest (Western blot). As to conditions: U2OS released from nocodazole block; for timing of cyclin E protein accumulation: 20 μM; for absolute levels of cyclin E protein: up to 24 h post-release. The procedure:
Cell synchronization and cell cycle progression analyses. U2OS cells in 6-well dishes were subjected to nocodazole treatment (75 ng/ml) for 22 h. Thereafter, the nocodazole-arrested cultures were released by washing with 1×PBS and grown in DMEM plus 10% FBS containing either vehicle (0.5% DMSO) or 20 μM decoy peptides. Cells were harvested at 4-h intervals for standard Western blot analyses. For the analysis of Geminin protein profile, mock- or cyclin E/Cdk2-transfected U2OS cells were exposed to nocodazole (75 ng/ml) at 3 h post-transfection for 22 h. Denaturing SDS-PAGE and western blotting. Proteins from whole cell lysate and IP complexes were separated using standard denaturing polyacrylamide gel electrophoresis as described previously (Hsu, S. I. H., et al. EMBO J 20, 2273-2285 (2001)). FIG. 7: Cell cycle protein expression profile and protein decay analysis. (A) Protein expression profile of U2OS cells released from nocodazole arrest in the absence or presence of decoy peptide treatment. Protein expression of various cyclins and Cdks was assessed by Western blotting using whole cell lysates from synchronized U2OS cells at 4, 8, 12, 16, 20 and 24 h after release. Coomassie-stained proteins served as loading controls; (B) U2OS cells transfected with vector backbone (vehicle) or pRc/cyclin E and pCMV/Cdk2 (1 μg each), were arrested at the G2/M boundary by exposure to nocodazole (75 ng/ml) and then released to re-enter the cell cycle. Protein expression of cyclin E and Geminin was assessed using whole cell lysates from synchronized U2OS cells at 0, 4, 8, 12, 16 and 20 h after release; (C) Protein decay analysis of Geminin expression in the absence or presence of cyclin E/Cdk2 over-expression (left panel) or in the absence or presence of decoy peptide treatment (right panel) by Western blotting (WB). Coomassie stained proteins served as the loading control (C).
On the technique in general: Immunoblotting shows a protein as a band on a membrane.

Where no end group is shown, it is not given here.

In the case of “ERQIKIWFQNRRMKWKKGLDEDGLLLFCEGDTIAD (Peptide containing penetratin sequence from Drosophila and random peptide sequence) [*SCR, reference compound]”, the “transcriptional activity of the minimal reporter” value (“transcriptional activity” for short) in experiment [1] is “slight activation”. Moreover, the “caspase-3 protease activity in cell lysates” value (“caspase-3 protease activity” for short) in experiment [2] is listed as “indistinguishable from the baseline activity”. Further, the “timing of cyclin E protein accumulation” value with cyclins and Cdks is “accumulated during mid-to-late G1 between 8 h and 16 h post-release”.

“ERQIKIWFQNRRMKWKKTGFLTDLTLDDILFADID (ERQIKIWFQNRRMKWKKTGFLTDLTLDDILFADID-NH2) [*Br2]”: in experiment [1], the “transcriptional activity” value is “did not alter the transcriptional activity of the minimal reporter significantly”. In experiment [2], the “caspase-3 protease activity” value was “indistinguishable from the baseline activity”. In the experiment with cyclins and Cdks, the “timing of cyclin E protein accumulation” value was “premature accumulation of cyclin E beginning in early G1”; the “absolute levels of cyclin E protein” value is “dramatically up-regulated and sustained at high levels”.

As to “ERQIKIWFQNRRMKWKKATGCLLDDGLEGLFEDID (ERQIKIWFQNRRMKWKKATGCLLDDGLEGLFEDID-NH2) [*Br1]”, the “transcriptional activity” value in experiment [1] is reported as “slight activation”. Besides, the “caspase-3 protease activity” value in experiment [2] was “indistinguishable from the baseline activity”. Moreover, in the experiment with cyclins and Cdks, the “timing of cyclin E protein accumulation” value is given as “premature accumulation of cyclin E beginning in early G1”; the “absolute levels of cyclin E protein” value is “dramatically up-regulated and sustained at high levels”.

Source of the values: patent US7223733B2, “Modulation of TRIP-Br function and method of treating proliferative disorders” (National University of Singapore, priority 2004, dated 2007).
